Results as given in patent US12441717B2, “Crystal form of polycyclic anaplastic lymphoma kinase inhibitor” (SHANDONG XUANZHU PHARMA CO., LTD., priority 2020, dated 2025).
“And” between values parts separate entries of the source, which are not always exact repeats. Equal values may be shown once. One block for each compound: values may come before it.

How the values were obtained:
Type in all cases: physicochemical
[1] = Moisture absorbability test (Chinese Pharmacopoeia 2015, General Principle 9103); conditions: for Moisture absorbability results: wrapped cells end with 'absorbability'
Source text: A Test sample was taken and determined according to Chinese Pharmacopoeia, 2015 edition, vol. four, General Principle 9103, Guiding Principles for Drug Moisture Absorbability Test.

[2] = Stability study (high temperature, high humidity, light): properties, related substances, moisture, XRD; conditions: for Stability under high temperature, high humidity and light conditions (conclusion): overall conclusion of the stability study
Experimental: 2.1 Study Conditions for Crystal Form B of the Compound of Formula (1): • Placed at 105° C. for 5 days, left open, and sampled and tested on days 1 and 5; • placed at 60° C. for 10 days, left open, and sampled and tested on days 5 and 10; • placed under 25° C. RH 92.5% conditions for 10 days, left open, and sampled and tested on days 5 and 10; • under light conditions, using open and closed conditions (polyethylene bag+composite film bag), and sampling and testing when illumination requirements were met; and • placed under 40° C. RH 75% conditions for 1 month, left open, and sampled and tested on day 10 and after 1 month.
2.2 Study Conditions for Crystal Form a of the Compound of Formula (1): • Placed at 105° C. for 5 days, left open, and sampled and tested on days 1 and 5; • placed at 60° C. for 10 days, left open, and sampled and tested on days 5 and 10; • placed under 25° C. RH 92.5% conditions for 10 days, left open, and sampled and tested on days 5 and 10; • under light conditions, left open, and sampled and tested when illumination requirements were met; and • placed under 40° C. RH 75% conditions for 10 days, left open, and sampled and tested on days 5 and 10.
2.3 Study Conditions for the Amorphous Form of the Compound of Formula (1): • Placed at 60° C. for 10 days, left open, and sampled and tested on day 10; placed under 25° C. RH 92.5% conditions for 10 days, left open, and sampled and tested on day 10; and • under light conditions, using open and closed conditions (polyethylene bag+composite film bag), and sampling and testing when illumination requirements were met.
Illumination requirements: ICH Q1B Stability Test: Photostability Testing of New Drug Substances and formulation.
Determination of related substances: Determination by high performance liquid chromatography in accordance with “Chinese Pharmacopoeia”, 2015 edition, Vol. four, General Principle 0512.
Moisture determination: Determination according to “Chinese Pharmacopoeia”, 2015 edition, vol. four, General Principle 0832, Moisture Determination Method, First Method (Fischer's method), 2 Coulometric Titration Method.
XRD determination: Determination according to “Chinese Pharmacopoeia”, 2015 edition, vol. four, General Principle 0451 X-ray Diffraction Method—Second Method, Powder X-ray Diffraction Method.

[3] = Fluidity after universal pulverization (angle of repose, Carr's index, electrostatic phenomenon); conditions: for Angle of repose / Carr's index % / ρbulk / ρtapped: after universal pulverization
Experimental: The amorphous form and crystal forms A and B of the compound of formula (1) were treated by universal pulverization.
The fluidity of the crystal form could be characterized by the angle of repose and the Carr's index. It was generally believed that the smaller the angle of repose and the Carr's index, the better the fluidity.

[4] = Solubility in buffered salt solutions of different pH (HPLC external standard); conditions: for solubility at 24 h: buffered salt solution, 25 °C, thermodynamic from solid
Source text: The solubility (mg/mL) of crystal forms A and B and the amorphous form of the compound of formula (1) under different pH conditions were as shown in Table 1.

[5] = Day 0, coulometric Fischer titration
[6] = Day 0, related substances by HPLC
[7] = Day 10, at 25° C. RH 92.5%, open
[8] = Light - closed (polyethylene bag+composite film bag), ICH Q1B illumination
[9] = Light - closed, ICH Q1B illumination
[10] = Light - open, ICH Q1B illumination
[11] = Light - open, pattern compared with day 0
[12] = buffered salt solution pH 1.0, shaken at 25° C. for 24 h
[13] = buffered salt solution pH 4.5, shaken at 25° C. for 24 h
[14] = buffered salt solution pH 6.8, shaken at 25° C. for 24 h
[15] = buffered salt solution pH 7.4, shaken at 25° C. for 24 h
[16] = Day 5, at 25° C. RH 92.5%, open

Hygroscopic weight gain (%) [1]: 2.8%
Moisture absorbability results [1]: Having moisture
Properties ([2]; Day 0): Off-white powder
Moisture % [2, 5]: 0.92%
Overall related % [2, 6]: 0.84%
Moisture % [2, 7]: 6.9%
Overall related % [2, 7]: 0.90%
Properties [2, 7]: Off-white powder
XRD ([2]; Day 10, at 25° C. RH 92.5%, open, pattern compared with day 0 (wrapped cell reads 'same as day 0')): Same as day 0
Moisture % ([2]; Day 10, at 60° C., open): 0.69%
Overall related % ([2]; Day 10, at 60° C., open): 1.78%
Properties ([2]; Day 10, at 60° C., open): Light yellow powder
XRD ([2]; Day 10, at 60° C., open, pattern compared with day 0 (wrapped cell reads 'same as day 0')): Same as day 0
Properties [2, 8]: Off-white powder
Moisture % [2, 9]: 0.62%
Overall related % [2, 9]: 0.88%
XRD ([2]; Light - closed, pattern compared with day 0 (wrapped cell reads 'same as day 0')): Same as day 0
Moisture % [2, 10]: 2.3%
Overall related % [2, 10]: 10.19%
Properties [2, 10]: Light yellow powder
XRD [2, 11]: Same as day 0
Stability under high temperature, high humidity and light conditions (conclusion) [2]: unstable
Electrostatic phenomenon after pulverization [3]: serious electrostatic phenomenon
Angle of repose [3]: 50.6 °
Solubility [4, 12]: 11200 µg/mL
Solubility [4, 13]: 17 µg/mL
Solubility [4, 14]: 10 µg/mL
Solubility [4, 15]: 8.7 µg/mL
SMILES: Cc1cc(Nc2ncc(Cl)c(Nc3ccccc3S(=O)(=O)C(C)C)n2)c2c(c1C1CCNCC1)OCCO2 [Amorphous form, 5-chloro-N^4-(2-(isopropylsulfonyl)phenyl)-N^2-(7-methyl-8-(piperidin-4-yl)-2,3-dihydrobenzo[b][1,4]dioxin-5-yl)pyrimidine-2,4-diamine]

Hygroscopic weight gain (%) [1]: 0.08%
Moisture absorbability results [1]: no or almost no moisture absorbability
Properties ([2]; Day 0): Off-white powder
Moisture % [2, 5]: 0.25%
Overall related % [2, 6]: 0.64%
Moisture % ([2]; Day 1, at 105° C., open): 0.18%
Overall related % ([2]; Day 1, at 105° C., open): 0.78%
Properties ([2]; Day 1, at 105° C., open): Off-white powder
Moisture % [2, 16]: 0.23%
Overall related % [2, 16]: 0.69%
Properties [2, 16]: Off-white powder
Moisture % ([2]; Day 5, at 40° C. RH 75%, open): 0.23%
Overall related % ([2]; Day 5, at 40° C. RH 75%, open): 0.79%
Properties ([2]; Day 5, at 40° C. RH 75%, open): Off-white powder
Moisture % ([2]; Day 5, at 60° C., open): 0.17%
Overall related % ([2]; Day 5, at 60° C., open): 0.81%
Properties ([2]; Day 5, at 60° C., open): Off-white powder
Moisture % ([2]; Day 5, at 105° C., open): 0.17%
Overall related % ([2]; Day 5, at 105° C., open): 1.6%
Properties ([2]; Day 5, at 105° C., open): Off-white powder
Moisture % [2, 7]: 0.17%
Overall related % [2, 7]: 0.78%
Properties [2, 7]: Off-white powder
Moisture % ([2]; Day 10, at 40° C. RH 75%, open): 0.15%
Overall related % ([2]; Day 10, at 40° C. RH 75%, open): 0.89%
Properties ([2]; Day 10, at 40° C. RH 75%, open): Off-white powder
Moisture % ([2]; Day 10, at 60° C., open): 0.11%
Overall related % ([2]; Day 10, at 60° C., open): 1.0%
Properties ([2]; Day 10, at 60° C., open): Off-white powder
Moisture % [2, 10]: 0.23%
Overall related % [2, 10]: 1.9%
Properties [2, 10]: Light yellow powder
XRD [2, 11]: Same as day 0
Stability under high temperature, high humidity and light conditions (conclusion) [2]: relatively stable
Electrostatic phenomenon after pulverization [3]: no obvious electrostatic phenomenon
Angle of repose [3]: 53 °
Carr's index % [3]: 45%
ρbulk [3]: 0.35 g/mL
ρtapped [3]: 0.63 g/mL
Solubility [4, 13]: 2 µg/mL
Solubility [4, 14]: Not detected
Solubility [4, 15]: Not detected
solubility at 24 h ([4]; pH 1, simulated gastric fluid, buffered salt solution pH 1.0, shaken at 25° C. for 24 h): 16900 µg/mL
SMILES: Cc1cc(Nc2ncc(Cl)c(Nc3ccccc3S(=O)(=O)C(C)C)n2)c2c(c1C1CCNCC1)OCCO2 [Crystal form A, 5-chloro-N^4-(2-(isopropylsulfonyl)phenyl)-N^2-(7-methyl-8-(piperidin-4-yl)-2,3-dihydrobenzo[b][1,4]dioxin-5-yl)pyrimidine-2,4-diamine]

Hygroscopic weight gain (%) [1]: 0.11%
Moisture absorbability results [1]: no or almost no moisture absorbability
Moisture % ([2]; 1 M, at 40° C. RH 75%, open): 0.39%
Overall related % ([2]; 1 M, at 40° C. RH 75%, open): 0.11%
Properties ([2]; 1 M, at 40° C. RH 75%, open): Off-white crystalline
Moisture % [2, 5]: 0.38% and 0.27%
Overall related % [2, 6]: 0.09% and 0.10%
Moisture % ([2]; Day 1, at 105° C., open): 0.34%
Overall related % ([2]; Day 1, at 105° C., open): 0.10%
Properties ([2]; Day 1, at 105° C., open): Off-white crystalline
Moisture % [2, 16]: 0.37%
Overall related % [2, 16]: 0.07%
Properties [2, 16]: Off-white crystalline
Moisture % ([2]; Day 5, at 60° C., open): 0.26%
Overall related % ([2]; Day 5, at 60° C., open): 0.08%
Properties ([2]; Day 5, at 60° C., open): Off-white crystalline
Moisture % ([2]; Day 5, at 105° C., open): 0.37%
Overall related % ([2]; Day 5, at 105° C., open): 0.08%
Properties ([2]; Day 5, at 105° C., open): Off-white crystalline
Moisture % [2, 7]: 0.43%
Overall related % [2, 7]: 0.10%
Properties [2, 7]: Off-white crystalline
Moisture % ([2]; Day 10, at 40° C. RH 75%, open): 0.42%
Overall related % ([2]; Day 10, at 40° C. RH 75%, open): 0.09%
Properties ([2]; Day 10, at 40° C. RH 75%, open): Off-white crystalline
Moisture % ([2]; Day 10, at 60° C., open): 0.45%
Overall related % ([2]; Day 10, at 60° C., open): 0.10%
Properties ([2]; Day 10, at 60° C., open): Off-white crystalline
Properties [2, 8]: Off-white crystalline
Moisture % [2, 9]: 0.41%
Overall related % [2, 9]: 0.10%
Moisture % [2, 10]: 0.21%
Overall related % [2, 10]: 0.54%
Properties [2, 10]: Yellow powder
XRD [2, 11]: Same as day 0
Stability under high temperature, high humidity and light conditions (conclusion) [2]: relatively stable
Electrostatic phenomenon after pulverization [3]: no electrostatic phenomenon
Angle of repose [3]: 45.8 °
Carr's index % [3]: 30%
ρbulk [3]: 0.477 g/mL
ρtapped [3]: 0.683 g/mL
Solubility [4, 12]: 19800 µg/mL
Solubility [4, 13]: 22 µg/mL
solubility at 24 h ([4]; pH 6.8, aqueous buffer, buffered salt solution pH 6.8, shaken at 25° C. for 24 h): 13 µg/mL
solubility at 24 h ([4]; pH 7.4, aqueous buffer, buffered salt solution pH 7.4, shaken at 25° C. for 24 h): 10 µg/mL
SMILES: Cc1cc(Nc2ncc(Cl)c(Nc3ccccc3S(=O)(=O)C(C)C)n2)c2c(c1C1CCNCC1)OCCO2 [Crystal form B, 5-chloro-N^4-(2-(isopropylsulfonyl)phenyl)-N^2-(7-methyl-8-(piperidin-4-yl)-2,3-dihydrobenzo[b][1,4]dioxin-5-yl)pyrimidine-2,4-diamine]
